Several values for one entry are separate records, joined by “and”; a condition that tells them apart may be missing. Identical values can stand only once. Like-named read-outs stand apart in the source and are kept apart here.
What was measured:
P. falciparum Dd2-2D4 = test: P. falciparum asexual blood stage (ABS) growth assay, SYBR Green, 72 h, wild-type parasites; assay type: cell-based, Plasmodium falciparum; conditions: for ABS growth dose-response, normalized signal (Replicates 1-3): Dd2-2D4
Procedure: Parasites were maintained under standard culture conditions as described previously[56],[57]. […] The P. falciparum Dd2 cell lines used in this study (Dd2-2D4, halofuginone-induced, and HFGR-I) have previously undergone whole genome sequencing in our labs.
This assay was performed as previously described[8]. In short, P. falciparum erythrocytic-stage parasites at 1% parasitemia and 1% hematocrit in RPMI + 0.5% Albumax were seeded at 40 μL/well in 384-well plates with test compounds in triplicate, dose-response format with 10 μM dihydroartemisinin as a kill-control and blank (no compound) wells as a growth-control. […] After 72 h, growth was quantified by measuring fluorescence (Molecular Devices SpectraMax iD5) following SYBR Green 1 staining. Data were analyzed in Excel and plotted in PRISM (V. 8.4.3–9.1.0, GraphPad).

[1] = tested on: halofuginone-induced P. falciparum (elevated proline homeostasis); test: P. falciparum ABS growth assay, SYBR Green, 72 h, halofuginone-induced parasites; assay type: cell-based, Plasmodium falciparum; conditions: Halofuginone-Induced (HFG-Induced)
Outline: (§1)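 Asexual blood-stage Dd2 parasites, 1% parasitemia/1% hematocrit, RPMI + 0.5% Albumax; triplicate dose-response, 72 h. Readout SYBR Green 1 fluorescence. Controls: 10 μM dihydroartemisinin (kill), no compound (growth). EC50 values determined.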

[2] = tested on: HFGR-I P. falciparum (elevated proline homeostasis and PfcProRS^L482H); test: P. falciparum ABS growth assay, SYBR Green, 72 h, HFGR-I parasites; assay type: cell-based, Plasmodium falciparum; conditions: HFGR-I
Outline: as §1

PfcProRS = biological target: T1, PfcProRS (Plasmodium falciparum, UniProt Q8I5R7); assay type: binding; conditions: for dose-response signal (normalized), SI Fig 8: single replicates
T1 construct: made in house; host or cells: E. coli SoluBL-21
T1 sequence (Q8I5R7 249-746): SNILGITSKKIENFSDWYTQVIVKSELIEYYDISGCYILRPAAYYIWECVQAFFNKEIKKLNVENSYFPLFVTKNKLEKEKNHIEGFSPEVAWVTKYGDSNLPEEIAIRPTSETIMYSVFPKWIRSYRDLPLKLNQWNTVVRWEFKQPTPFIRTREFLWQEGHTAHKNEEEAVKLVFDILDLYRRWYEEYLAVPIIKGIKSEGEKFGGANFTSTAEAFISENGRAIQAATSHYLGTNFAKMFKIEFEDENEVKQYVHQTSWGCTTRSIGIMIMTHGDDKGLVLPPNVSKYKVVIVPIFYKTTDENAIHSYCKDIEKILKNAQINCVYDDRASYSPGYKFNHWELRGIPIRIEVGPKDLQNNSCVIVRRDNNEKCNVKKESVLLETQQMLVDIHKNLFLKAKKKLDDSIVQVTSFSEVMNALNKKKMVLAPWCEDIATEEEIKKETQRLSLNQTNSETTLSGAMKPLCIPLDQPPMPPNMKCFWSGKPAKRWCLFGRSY

HsProRS = HsProRS (Homo sapiens, UniProt P07814); test: TR-FRET ligand displacement assay with tracer MAT379 (CoraFluor-1-Halo and anti-His6 antibody formats); assay type: binding; parameters: made in house; host or cells: E. coli SoluBL-21; conditions: for Kd: 250 nM MAT379; for TR-FRET dose-response, normalized signal (SI Fig 11): individual replicates
HsProRS, sequence (P07814 996-1512): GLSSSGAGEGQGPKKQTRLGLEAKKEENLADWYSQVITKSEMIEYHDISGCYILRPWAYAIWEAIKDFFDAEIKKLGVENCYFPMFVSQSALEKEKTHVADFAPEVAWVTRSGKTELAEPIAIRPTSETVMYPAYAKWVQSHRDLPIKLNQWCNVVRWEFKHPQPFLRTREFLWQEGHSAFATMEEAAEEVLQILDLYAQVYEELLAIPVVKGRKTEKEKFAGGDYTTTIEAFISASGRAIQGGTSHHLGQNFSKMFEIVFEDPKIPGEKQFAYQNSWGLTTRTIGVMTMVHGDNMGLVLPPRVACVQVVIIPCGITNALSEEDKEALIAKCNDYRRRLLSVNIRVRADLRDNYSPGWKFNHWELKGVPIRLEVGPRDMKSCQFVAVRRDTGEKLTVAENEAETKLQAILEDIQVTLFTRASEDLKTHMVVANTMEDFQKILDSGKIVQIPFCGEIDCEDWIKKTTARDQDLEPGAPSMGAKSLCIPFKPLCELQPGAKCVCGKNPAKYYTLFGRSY

CC(C)(C)OC(=O)N[C@H]1CC[C@@H](C(=O)Nc2nccnc2C(=O)NC2Cc3ccccc3C2)CC1 [compound 6]
ABS growth dose-response, normalized signal (Replicates 1-3) (P. falciparum Dd2-2D4; Log[inhibitor] (M) -4.699): 0
ABS growth dose-response, normalized signal (Replicates 1-3) (P. falciparum Dd2-2D4; Log[inhibitor] (M) -5.301): 1
ABS growth dose-response, normalized signal (Replicates 1-3) (P. falciparum Dd2-2D4; Log[inhibitor] (M) -5.903): 4
EC50 (P. falciparum Dd2-2D4; Plasmodium falciparum, DD2, SI Fig 16b, values on -log scale, read-out: ABS - Dd2-2D4 (converted)): 0.508 µM
ABS growth dose-response, normalized signal (Replicates 1-3) ([1]; Log[inhibitor] (M) -5.000): 38 and 37 and 33
ABS growth dose-response, normalized signal (Replicates 1-3) ([1]; Log[inhibitor] (M) -5.301): 80 and 73 and 79
ABS growth dose-response, normalized signal (Replicates 1-3) ([1]; Log[inhibitor] (M) -5.602): 89 and 91 and 90
ABS growth dose-response, normalized signal (Replicates 1-3) ([1]; Log[inhibitor] (M) -5.903): 99 and 97 and 98
ABS growth dose-response, normalized signal (Replicates 1-3) ([1]; Log[inhibitor] (M) -6.204): 99 and 98 and 96
ABS growth dose-response, normalized signal (Replicates 1-3) ([1]; Log[inhibitor] (M) -6.505): 98 and 107 and 101
ABS growth dose-response, normalized signal (Replicates 1-3) ([1]; Log[inhibitor] (M) -6.806): 93 and 91 and 99
ABS growth dose-response, normalized signal (Replicates 1-3) ([1]; Log[inhibitor] (M) -7.107): 91 and 93 and 96
ABS growth dose-response, normalized signal (Replicates 1-3) ([1]; Log[inhibitor] (M) -7.408): 96 and 93 and 99
ABS growth dose-response, normalized signal (Replicates 1-3) ([1]; Log[inhibitor] (M) -7.709): 100 and 98 (2×)
ABS growth dose-response, normalized signal (Replicates 1-3) ([1]; Log[inhibitor] (M) -8.010): 99 (2×) and 97
ABS growth dose-response, normalized signal (Replicates 1-3) ([1]; Log[inhibitor] (M) -8.311): 98 and 97 and 96
ABS growth dose-response, normalized signal (Replicates 1-3) ([2]; Log[inhibitor] (M) -5.000): 30 and 31 and 35
ABS growth dose-response, normalized signal (Replicates 1-3) ([2]; Log[inhibitor] (M) -5.301): 64 and 68 and 70
ABS growth dose-response, normalized signal (Replicates 1-3) ([2]; Log[inhibitor] (M) -5.602): 83 (2×) and 82
ABS growth dose-response, normalized signal (Replicates 1-3) ([2]; Log[inhibitor] (M) -5.903): 92 and 97 and 94
ABS growth dose-response, normalized signal (Replicates 1-3) ([2]; Log[inhibitor] (M) -6.204): 105 and 106 and 108
ABS growth dose-response, normalized signal (Replicates 1-3) ([2]; Log[inhibitor] (M) -6.505): 108 (2×) and 110
ABS growth dose-response, normalized signal (Replicates 1-3) ([2]; Log[inhibitor] (M) -6.806): 85 and 90 (2×)
ABS growth dose-response, normalized signal (Replicates 1-3) ([2]; Log[inhibitor] (M) -7.107): 91 and 92 and 97
ABS growth dose-response, normalized signal (Replicates 1-3) ([2]; Log[inhibitor] (M) -7.408): 92 and 97 and 99
ABS growth dose-response, normalized signal (Replicates 1-3) ([2]; Log[inhibitor] (M) -7.709): 95 and 99 (2×)
ABS growth dose-response, normalized signal (Replicates 1-3) ([2]; Log[inhibitor] (M) -8.010): 107 and 102 and 97
ABS growth dose-response, normalized signal (Replicates 1-3) ([2]; Log[inhibitor] (M) -8.311): 104 and 108 and 101
dose-response signal (normalized), SI Fig 8 (PfcProRS; Log[inhibitor] (M) -5.000): -1.61E-02 and -5.30E-02 and -3.81E-03
dose-response signal (normalized), SI Fig 8 (PfcProRS; Log[inhibitor] (M) -5.301): -7.80E-02 and -1.87E-02 and -8.78E-02
dose-response signal (normalized), SI Fig 8 (PfcProRS; Log[inhibitor] (M) -5.601): 1.78E-02 and -1.26E-02 and 5.92E-03
dose-response signal (normalized), SI Fig 8 (PfcProRS; Log[inhibitor] (M) -5.904): 6.25E-02 and 5.05E-02 and 9.24E-02
dose-response signal (normalized), SI Fig 8 (PfcProRS; Log[inhibitor] (M) -6.208): 5.23E-02 and 1.76E-01 and 1.80E-01
dose-response signal (normalized), SI Fig 8 (PfcProRS; Log[inhibitor] (M) -6.509): 2.25E-01 and 2.68E-01 and 2.02E-01
dose-response signal (normalized), SI Fig 8 (PfcProRS; Log[inhibitor] (M) -6.796): 4.96E-01 and 4.42E-01 and 4.81E-01
dose-response signal (normalized), SI Fig 8 (PfcProRS; Log[inhibitor] (M) -7.108): 6.45E-01 and 6.22E-01 and 4.90E-01
dose-response signal (normalized), SI Fig 8 (PfcProRS; Log[inhibitor] (M) -7.409): 7.15E-01 and 8.22E-01 and 8.32E-01
dose-response signal (normalized), SI Fig 8 (PfcProRS; Log[inhibitor] (M) -7.710): 9.70E-01 and 9.04E-01 and 8.55E-01
dose-response signal (normalized), SI Fig 8 (PfcProRS; Log[inhibitor] (M) -8.000): 8.78E-01 and 9.57E-01 and 8.94E-01
dose-response signal (normalized), SI Fig 8 (PfcProRS; Log[inhibitor] (M) -8.301): 1.00E+00 and 9.97E-01 and 9.67E-01
dose-response signal (normalized), SI Fig 8 (PfcProRS; Log[inhibitor] (M) -8.602): 1.06E+00 and 9.31E-01 and 1.01E+00
dose-response signal (normalized), SI Fig 8 (PfcProRS; Log[inhibitor] (M) -9.000): 9.58E-01 and 9.81E-01 and 9.50E-01
dose-response signal (normalized), SI Fig 8 (PfcProRS; Log[inhibitor] (M) -9.301): 1.01E+00 and 1.02E+00 and 9.51E-01
PfcProRS -- best Kd (PfcProRS; SI Fig 16a, values on -log scale): 7.580
Kd (HsProRS; HsProRS (KD [nM]) + proline, 100 μM proline): 82.7 nM
Kd (HsProRS; HsProRS (KD [nM]) −, absence of substrates): 56.8 nM
normalized TR-FRET ligand displacement signal, dose-response replicates (SI Fig 6) (HsProRS; Log[inhibitor] (M) -5.000): -9.02E-03 and -3.85E-02 and -4.81E-02
TR-FRET dose-response, normalized signal (SI Fig 11) (HsProRS; Log[inhibitor] (M) -5.000): -2.98E-03 and 2.00E-02 and -3.48E-02
normalized TR-FRET ligand displacement signal, dose-response replicates (SI Fig 6) (HsProRS; Log[inhibitor] (M) -5.301): 1.39E-03 and -1.19E-02 and 6.50E-02
TR-FRET dose-response, normalized signal (SI Fig 11) (HsProRS; Log[inhibitor] (M) -5.301): -9.84E-03 and -1.64E-02 and -3.17E-02
normalized TR-FRET ligand displacement signal, dose-response replicates (SI Fig 6) (HsProRS; Log[inhibitor] (M) -5.601): 3.06E-03 and 6.60E-02 and -6.88E-02
TR-FRET dose-response, normalized signal (SI Fig 11) (HsProRS; Log[inhibitor] (M) -5.601): 1.87E-02 and 1.41E-03 and 1.94E-02
normalized TR-FRET ligand displacement signal, dose-response replicates (SI Fig 6) (HsProRS; Log[inhibitor] (M) -5.904): 1.31E-01 and 8.92E-02 and 1.65E-02
TR-FRET dose-response, normalized signal (SI Fig 11) (HsProRS; Log[inhibitor] (M) -5.904): 4.76E-02 and 6.37E-02 and 6.71E-02
normalized TR-FRET ligand displacement signal, dose-response replicates (SI Fig 6) (HsProRS; Log[inhibitor] (M) -6.208): 8.21E-02 and 1.14E-01 and 9.74E-02
TR-FRET dose-response, normalized signal (SI Fig 11) (HsProRS; Log[inhibitor] (M) -6.208): 1.11E-01 and 9.52E-02 and 8.68E-02
normalized TR-FRET ligand displacement signal, dose-response replicates (SI Fig 6) (HsProRS; Log[inhibitor] (M) -6.509): 3.32E-01 and 2.13E-01 and 2.09E-01
TR-FRET dose-response, normalized signal (SI Fig 11) (HsProRS; Log[inhibitor] (M) -6.509): 1.70E-01 and 1.88E-01 and 1.94E-01
normalized TR-FRET ligand displacement signal, dose-response replicates (SI Fig 6) (HsProRS; Log[inhibitor] (M) -6.796): 3.90E-01 and 3.58E-01 and 4.40E-01
TR-FRET dose-response, normalized signal (SI Fig 11) (HsProRS; Log[inhibitor] (M) -6.796): 3.16E-01 and 2.94E-01 and 3.43E-01
normalized TR-FRET ligand displacement signal, dose-response replicates (SI Fig 6) (HsProRS; Log[inhibitor] (M) -7.108): 6.29E-01 and 5.81E-01 and 6.23E-01
TR-FRET dose-response, normalized signal (SI Fig 11) (HsProRS; Log[inhibitor] (M) -7.108): 5.24E-01 and 5.07E-01 and 4.16E-01
normalized TR-FRET ligand displacement signal, dose-response replicates (SI Fig 6) (HsProRS; Log[inhibitor] (M) -7.409): 7.27E-01 and 7.69E-01 and 8.30E-01
TR-FRET dose-response, normalized signal (SI Fig 11) (HsProRS; Log[inhibitor] (M) -7.409): 6.04E-01 and 6.96E-01 and 6.63E-01
normalized TR-FRET ligand displacement signal, dose-response replicates (SI Fig 6) (HsProRS; Log[inhibitor] (M) -7.710): 8.52E-01 and 7.93E-01 and 9.04E-01
TR-FRET dose-response, normalized signal (SI Fig 11) (HsProRS; Log[inhibitor] (M) -7.710): 7.36E-01 and 7.44E-01 and 7.53E-01
normalized TR-FRET ligand displacement signal, dose-response replicates (SI Fig 6) (HsProRS; Log[inhibitor] (M) -8.000): 8.26E-01 and 9.38E-01 and 9.73E-01
TR-FRET dose-response, normalized signal (SI Fig 11) (HsProRS; Log[inhibitor] (M) -8.000): 8.98E-01 and 8.12E-01 and 7.76E-01
normalized TR-FRET ligand displacement signal, dose-response replicates (SI Fig 6) (HsProRS; Log[inhibitor] (M) -8.301): 9.79E-01 and 9.47E-01 and 1.01E+00
TR-FRET dose-response, normalized signal (SI Fig 11) (HsProRS; Log[inhibitor] (M) -8.301): 8.89E-01 and 8.40E-01 and 9.15E-01
normalized TR-FRET ligand displacement signal, dose-response replicates (SI Fig 6) (HsProRS; Log[inhibitor] (M) -8.602): 9.42E-01 and 9.96E-01 and 9.03E-01
TR-FRET dose-response, normalized signal (SI Fig 11) (HsProRS; Log[inhibitor] (M) -8.602): 9.56E-01 and 8.65E-01 and 9.25E-01
normalized TR-FRET ligand displacement signal, dose-response replicates (SI Fig 6) (HsProRS; Log[inhibitor] (M) -9.000): 9.97E-01 and 9.50E-01 and 8.98E-01
TR-FRET dose-response, normalized signal (SI Fig 11) (HsProRS; Log[inhibitor] (M) -9.000): 9.29E-01 and 9.09E-01 and 9.22E-01
normalized TR-FRET ligand displacement signal, dose-response replicates (SI Fig 6) (HsProRS; Log[inhibitor] (M) -9.301): 1.05E+00 and 9.90E-01 and 1.06E+00
TR-FRET dose-response, normalized signal (SI Fig 11) (HsProRS; Log[inhibitor] (M) -9.301): 9.30E-01 and 9.49E-01 and 9.75E-01
